Experiments:
[1] = system: proteolytic activity of fecal extract; conditions: 0-1 mM emulsions, pH 8.0, room temperature
Experimental: The supernatant was filtered through 0.22 micron cellulose acetate filters and stored at −80° C. until use.

[2] = system: EpiDerm™ 201 synthetic skin (keratinocytes), interleukin-1 alpha release
Excerpt: The synthetic skin, EpiDerm™ 201 (MatTek Corporation, Ashland, Mass.) contains keratinocytes that release interleukin-1 alpha (IL-1 alpha) when subjected to proteases in the fecal extract. When the IL-1 alpha was released, it diffused from the skin into the fluid below the EpiDerm™. Samples of this fluid were taken and analyzed for the presence of the IL-1 alpha. Higher levels of IL-1 alpha was indicative of greater skin irritation.
Prior to application onto the EpiDerm™, the fecal extract (10.4 μL) was pre-incubated for 30 minutes at room temperature with 250 mM zinc sulfate heptahydrate in water (2.6 μL). Water only and fecal extract only samples served as controls. After application of the samples to the EpiDerm™, 25 μL aliquots were removed from the underlying media at 8, 12, and 24 hours to test for the presence of the IL-1 alpha. The aliquots were directly added to a 1.5 mL micro-centrifuge tube containing 225 μL of filtered-sterilized 20 mM Tris-HCl, pH 8.0, 1% BSA buffer and stored at −80° C. After all samples were collected, IL-1 alpha levels were quantified using the R&D Systems Interleukin-1 alpha Quantikine Kit (R&D Systems, Minneapolis, Minn.).

[3] = system: proteolytic activity of infant urine; conditions: 0-50 mM, pH 8.0, 37° C.
Experimental: The proteolytic activity of infant urine was measured using fluorescently-labeled casein.
Two (2) infant urine (100 μL) samples were added to wells of a 96 white plate (Dynex) containing 80 μL of 12.5 μg/ml solution of a fluorescent dye-labeled casein substrate (EnzChek Protease Assay Kit (E-6639)) in 100 mM Tris-HCl, pH 8.0, and allowed to incubate for 60 minutes at 37° C. […] Reaction of the infant urine with the casein substrate cleaves the fluorescent dye from the substrate. RFUs were collected using the Fluoroskan Ascent System with excitation and emission filters of 485 and 538 nm, respectively. Data were collected each minute for 60 minutes at 37° C. and rates (RFU/min) from 30-50 minutes were calculated for each zinc concentration. Using the uninhibited wells as 100% protease activity, percent of urine proteolytic activity remaining was determined for each concentration of zinc inhibitor (Inhibited Rate/Uninhibited rate* 100).

[4] = system: proteolytic activity in the fecal extract; assay: Fecal extract protease assay with labeled casein (silk proteins); assay type: biochemical, infant; conditions: serial dilutions in 100 mM Tris-HCl pH 8.0, room temperature
Experimental: Water soluble silk protein (SERICIN, Pentapharm AG, Basel, Switzerland) and hydrolyzed silk (CROSILK 10,000, Croda, Incorporated, Parsippany, N.J.) were individually shown to inhibit proteolytic activity in the fecal extract that has been implicated to contribute to diaper rash. Serial dilutions of the neat protein and hydrolysate were performed with 100 mM Tris-HCl pH 8.0 as the diluent. The silk protein concentrations were determined using a Macro BCA Protein Assay Reagent Kit (Pierce, Rockford, Ill.).
Fecal extract was prepared as described above for the examples of silk protein and zinc compositions. […] The reaction was initiated with the addition of 100 μL of the 2 μg/ml fecal extract. […] The reaction was run for 30 min. at room temperature and rates (RFU/min) from 10-20 minutes were calculated.

## O.O.O.O.O.O.O.O=S(=O)([O-])[O-].[Zn+2] [zinc sulfate heptahydrate]
[1]
  inhibition of casein hydrolysis by fecal extract (FIG. 9): effectively inhibited the hydrolysis of casein by the fecal extract in a dose-dependent manner
[2]; 0, 25, 50, 125 and 250 mM in 2.6 μL aliquot added to 10.4 μL fecal extract
  inhibition of fecal extract activity on EpiDerm, concentration series (FIG. 12): effectively inhibits the proteolytic activity of fecal extract in a dose-dependent manner
[2]; 250 mM pre-incubated 30 min with fecal extract, relative to FE+water, 8, 12 and 24 hours
  interleukin-1 alpha released into underlying media (FIG. 11): reduced the amount of interleukin-1 alpha released into the underlying media
[3]
  inhibition of casein hydrolysis by infant urine (FIG. 10): effectively inhibited the hydrolysis of casein by infant urine in a dose-dependent manner

## SERICIN
[4]
  fecal proteolytic activity (FIG. 13): reduction of proteolytic activity with increasing concentrations

Source: US6503525B1, “Absorbent article which maintains or improves skin health” (Kimberly-Clark Worldwide, Inc., priority 1999, dated 2003)
